The structures appear in SMILES notation. Counter-ions that a name gives are not always drawn.

The target in the assay is T1, human IRAK4 kinase domain (aa 154-460) (Homo sapiens, UniProt Q9NWZ3).
T1 construct: human IRAK4 kinase domain (aa 154-460; GenBank ID AF445802)
T1 sequence (Q9NWZ3 154-460): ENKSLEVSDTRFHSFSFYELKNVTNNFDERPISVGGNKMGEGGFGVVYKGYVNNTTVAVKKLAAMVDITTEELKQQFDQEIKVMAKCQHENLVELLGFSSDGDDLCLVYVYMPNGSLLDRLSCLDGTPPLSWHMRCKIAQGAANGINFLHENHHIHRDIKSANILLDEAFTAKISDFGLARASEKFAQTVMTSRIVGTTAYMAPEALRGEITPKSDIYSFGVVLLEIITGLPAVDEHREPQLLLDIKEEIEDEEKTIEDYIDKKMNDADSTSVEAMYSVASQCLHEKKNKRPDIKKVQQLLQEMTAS
Description: IRAK4 Enzymatic DELFIA Assay. The class given is biochemical. The following applies: 0.6 mM ATP (KM); 114 pM IRAK4 kinase domain; 200 nM substrate; 5% DMSO. As for the experimental part:
IRAK4 Enzymatic DELFIA Assay.
This is an in vitro assay to measure IRAK4 enzymatic activity utilizing the DELFIA (Dissociation-Enhanced Lanthanide Fluorescent Immunoassay, Perkin-Elmer) platform, with the human IRAK4 kinase domain (aa 154-460) construct to characterize IRAK4 inhibitor and control compounds at 0.6 mM ATP (KM). The final amount of enzyme in the assay is 114 pM IRAK4 kinase domain, final concentration of substrate is 200 nM, and final concentration of DMSO is 5%.
The test compound was solubilized in DMSO to a stock concentration of 30 mM. The dose response plates were prepared with a 2 mM primary compound concentration, and then diluted in DMSO in a four-fold series for a total of 10 data points. Compounds were prepared as a 20-fold multiple of the final in-assay concentration
To begin the assay, 45 μL of reaction mixture containing 20 mM HEPES pH=7.5, 5 mM MgCl2, 0.0025% Brij-35, […], 228 pM phosphorylated recombinant human IRAK4 kinase domain (aa 154-460; GenBank ID AF445802) were aliquoted into Ultra-Clear Polypropylene, 96-well, U-Bottom Plates (Corning Life Sciences). 5 μL of test compound from the dose-response plate was added to the reaction mixture and incubated for 15 minutes at room temperature. Then 50 μL of 20 mM HEPES pH=7.5, 5 mM MgCl2, 0.0025% Brij-35, 600 μM ATP, and 400 nM ERM-biotinylated peptide (AGAGRDKYKTLRQIR) were added to start the reaction. The reaction was incubated for 90 minutes at room temperature and stopped by the addition of 25 μL 0.5M EDTA.
100 μL of the reaction mixture was transferred to a streptavidin coated detection plate (EvenCoat Streptavidin Coated Plates, 96-Well, R&D Systems) and incubated for 30 minutes at room temperature. The plates were washed 4 times with 100 μL per well of PBS containing 0.05% Tween-20. Plates were then incubated with 50 μL per well of antibody cocktail of Anti-pERM antibody (Cell Signaling Technology) diluted 1:5000, plus Anti-Rabbit IgG EuN1 at 0.242 μg/ml (Perkin-Elmer Life Sciences) in a solution of 10 mM MOPS pH=7.5, 150 mM NaCl, 0.05% Tween-20, 0.02% NaN3, 1% BSA, 0.1% Gelatin for 45 minutes. The plates were washed 4× with 100 μL per well of PBS containing 0.05% Tween-20. Then 100 μL per well of DELFIA Enhancement Solution were added to the plate and then read on an EnVision Model 2103 using a 340 nm excitation wavelength and a 665 nm emission detection.

For `CC(C)Oc1cc2c(O[C@@H]3CCCN(C(=O)C(C)(N)CO)C3)ccnc2cc1C(N)=O` (mixture of isomers) [Example 12, Racemic-4-{[(3R)-1-(2-amino-3-hydroxy-2-methylpropanoyl)piperidin-3-yl]oxy}-6-(propan-2-yloxy)quinoline-7-carboxamide formate], the half-inhibitory concentration (IC50) is 626 nM. As for `CC(C)Oc1cc2c(O[C@@H]3CCCN(C(=O)C(C)C#N)C3)ccnc2cc1C(N)=O` (mixture of isomers) [Example 34, 4-{[(3R)-1-(2-cyanopropanoyl)piperidin-3-yl]oxy}-6-(propan-2-yloxy)quinoline-7-carboxamide], the figure is 926 nM; as for `CC(C)Oc1cc2c(O[C@H]3CCN(C(=O)CC#N)C3)nccc2cc1C(N)=O` [Example 1, 1-{[(3S)-1-(cyanoacetyl)pyrrolidin-3-yl]oxy}-7-(propan-2-yloxy)isoquinoline-6-carboxamide formate], 53 nM. For `CC(C)Oc1cc2c(O[C@@H]3CCN(C(=O)CC#N)C3)nccc2cc1C(N)=O` [Example 2, 1-{[(3R)-1-(cyanoacetyl)pyrrolidin-3-yl]oxy}-7-(propan-2-yloxy)isoquinoline-6-carboxamide formate] the value was 66 nM; for `CC(C)Oc1cc2c(O[C@H]3CCN(C(=O)CC#N)C[C@H]3F)nccc2cc1C(N)=O` [Example 3, 1-{[(3R,4S)-1-(cyanoacetyl)-3-fluoropiperidin-4-yl]oxy}-7-(propan-2-yloxy)isoquinoline-6-carboxamide formate], 308 nM. As for `CC(C)Oc1cc2c(O[C@@H]3CCCN(C(=O)CO)C3)ccnc2cc1C(N)=O` [Example 4, 4-{[(3R)-1-(hydroxyacetyl)piperidin-3-yl]oxy}-6-(propan-2-yloxy)quinoline-7-carboxamide formate], the figure is 13 nM.

`CC(C)Oc1cc2c(O[C@@H]3CCCN(C(=O)C(F)F)C3)ccnc2cc1C(N)=O` [Example 5, 4-{[(3R)-1-(difluoroacetyl)piperidin-3-yl]oxy}-6-(propan-2-yloxy)quinoline-7-carboxamide formate]: the IC50 is 35 nM.

Compound `CC(C)Oc1cc2c(O[C@@H]3CCCN(C(=O)CN)C3)ccnc2cc1C(N)=O` [Example 6, 4-{[(3R)-1-glycylpiperidin-3-yl]oxy}-6-(propan-2-yloxy)quinoline-7-carboxamide formate] displayed a half-inhibitory concentration (IC50) of 348 nM. Compared with the last compound, the IC50 is about 9.9-fold higher. For `CC(C)Oc1cc2c(O[C@@H]3CCCN(C(=O)[C@H](C)N)C3)ccnc2cc1C(N)=O` [Example 7, 4-{[(3R)-1-(L-alanyl)piperidin-3-yl]oxy}-6-(propan-2-yloxy)quinoline-7-carboxamide formate] the value was 143 nM. As for `COCC(=O)N1CCC[C@@H](Oc2ccnc3cc(C(N)=O)c(OC(C)C)cc23)C1` [Example 8, 4-{[(3R)-1-(methoxyacetyl)piperidin-3-yl]oxy}-6-(propan-2-yloxy)quinoline-7-carboxamide formate], the figure is 168 nM; as for `CC(C)Oc1cc2c(O[C@@H]3CCCN(C(=O)C(F)(F)F)C3)ccnc2cc1C(N)=O` [Example 9, 6-(propan-2-yloxy)-4-{[(3R)-1-(trifluoroacetyl)piperidin-3-yl]oxy}quinoline-7-carboxamide formate], 263 nM; as for `CCC(=O)N1CCC[C@@H](Oc2ccnc3cc(C(N)=O)c(OC(C)C)cc23)C1` [Example 10, 4-{[(3R)-1-propanoylpiperidin-3-yl]oxy}-6-(propan-2-yloxy)quinoline-7-carboxamide formate], 506 nM.

Compound `CC(C)Oc1cc2c(O[C@@H]3CCCN(C(=O)c4cnco4)C3)ccnc2cc1C(N)=O` [Example 11, 4-{[(3R)-1-(1,3-oxazol-5-ylcarbonyl)piperidin-3-yl]oxy}-6-(propan-2-yloxy)quinoline-7-carboxamide formate] registered an IC50 of 560 nM. As to `CC(C)Oc1cc2c(O[C@@H]3CCCN(C(=O)[C@H](C)O)C3)ccnc2cc1C(N)=O` [Example 13, 4-({(3R)-1-[(2S)-2-hydroxypropanoyljpiperidin-3-yl}oxy)-6-(propan-2-yloxy)quinoline-7-carboxamide formate], the IC50 amounted to 751 nM. On to `CC(C)Oc1cc2c(O[C@@H]3CCCN(C(=O)c4c[nH]cn4)C3)ccnc2cc1C(N)=O` [Example 14, 4-{[(3R)-1-(1H-imidazol-4-ylcarbonyl)piperidin-3-yl]oxy}-6-(propan-2-yloxy)quinoline-7-carboxamide formate], for which the IC50 was 856 nM. `CC(C)Oc1cc2c(O[C@@H]3CCCN(C(=O)C4(CN)CC4)C3)ccnc2cc1C(N)=O` [Example 15, 4-{[(3R)-1-{[1-(aminomethyl)cyclopropyl]carbonyl}piperidin-3-yl]oxy}-6-(propan-2-yloxy)quinoline-7-carboxamide formate] displayed an IC50 of 999 nM. `CC(C)Oc1cc2c(O[C@@H]3C[C@@H](C)N(C(=O)CC#N)C3)ccnc2cc1C(N)=O` [Example 16, 4-{[(3R,5R)-1-(cyanoacetyl)-5-methylpyrrolidin-3-yl]oxy}-6-(propan-2-yloxy)quinoline-7-carboxamide formate] had an IC50 of 110 nM.

On to `CC(C)Oc1cc2c(O[C@H]3CCN(C(=O)CC#N)[C@@H]3C)ccnc2cc1C(N)=O` [Example 17, 4-{[(2R,3S)-1-(cyanoacetyl)-2-methylpyrrolidin-3-yl]oxy}-6-(propan-2-yloxy)quinoline-7-carboxamide formate], for which the midpoint of inhibition, the IC50, lay at 111 nM. The IC50 values of the last two compounds are within 1.5-fold of each other. For `CC(C)Oc1cc2c(O[C@H]3CCN(C(=O)CC#N)C[C@H]3F)ccnc2cc1C(N)=O` [Example 18, 4-{[(3R,4S)-1-(cyanoacetyl)-3-fluoropiperidin-4-yl]oxy}-6-(propan-2-yloxy)quinoline-7-carboxamide formate] the value was 660 nM; for `CC(C)Oc1cc2c(O[C@@H]3CCNC[C@H]3F)nccc2cc1C(N)=O` [Example 19, 1-{[(3R,4R)-3-fluoropiperidin-4-yl]oxy}-7-(propan-2-yloxy)isoquinoline-6-carboxamide], 39 nM; for `CC(C)Oc1cc2c(O[C@@H]3CCNC[C@@H]3F)ccnc2cc1C(N)=O` [Example 20, 1-{[(3S.4R)-3-fluoropiperidin-4-yl]oxy}-7-(propan-2-yloxy)isoquinoline-6-carboxamide], 150 nM. In turn, `CC(C)Oc1cc2c(OC3CCNC3=O)nccc2cc1C(N)=O` (stereo not shown) [Example 21, 1-[(2-oxopyrrolidin-3-yl)oxy]-7-(propan-2-yloxy)isoquinoline-6-carboxamide] showed an IC50 of 602 nM. As for `COc1cc2c(O[C@@H]3CCCNC3)ccnc2cc1C(N)=O` [Example 22, 6-methoxy-4-[(3R)-piperidin-3-yloxy]quinoline-7-carboxamide hydrochloride], the figure is 428 nM; as for `NC(=O)c1cc2nccc(O[C@@H]3CCCNC3)c2cc1OC1CCC1` [Example 23, 6-(cyclobutyloxy)-4-[(3R)-piperidin-3-yloxy]quinoline-7-carboxamide], 151 nM; as for `CC(C)Oc1cc2c(OC3CCNC3)ccnc2cc1C(N)=O` (stereo not shown) [Example 24, 6-(propan-2-yloxy)-4-(pyrrolidin-3-yloxy)quinoline-7-carboxamide], 611 nM. For `CC(C)Oc1cc2c(OC3CCNCC3)ccnc2cc1C(N)=O` [Example 25, 4-(piperidin-4-yloxy)-6-(propan-2-yloxy)quinoline-7-carboxamide] the value was 184 nM; for `CC(C)Oc1cc2c(O[C@H]3CCNC3)ccnc2cc1C(N)=O` [Example 26, 6-(propan-2-yloxy)-4-[(3S)-pyrrolidin-3-yloxy]quinoline-7-carboxamide formate], 950 nM.

Compound `CC(C)Oc1cc2c(OC3CCNC3=O)ccnc2cc1C(N)=O` (stereo not shown) [Example 27, 4-[(2-oxopyrrolidin-3-yl)oxy]-6-(propan-2-yloxy)quinoline-7-carboxamide] displayed an IC50 of 642 nM.

The values above are taken from US20180230127A1 (PFIZER INC., priority 2015, published 2018).
